Values of other authors, collected in patent US5807979A, “Synthetic, three-dimensionally stabilized polypeptide mimics of HIV” (The Scripps Research Institute, priority 1995, dated 1998).

Legend:
malaria = details: tested in humans; cited from earlier work
[1] = fraction of the activity of parent EGF; cited from earlier work

| Substance | effectiveness of vaccine in humans (malaria) | activity relative to that of the parent molecule [1] |
| --- | --- | --- |
| (Asn-Ala-Asn-Pro)3 | only partially effective |  |
| active fragment of epidermal growth factor (EGF), comprising amino acids 20-31: active fragment of epidermal growth factor (EGF), comprising amino acids 20-31 (CMYIEALDKYAC; Epidermal growth factor; UniProt P01133 990-1001, looked up, fragment) |  | about 10^-4 |
